Counter-ions that a name gives are not always drawn.
What was measured:
[1] = Solubility in physiologically acceptable solvents; format: physicochemical
[2] = Solid stress stability of the free base and of the corresponding monohydrochloride; format: physicochemical; conditions: for decomposition under temperature and relative humidity stress / decomposition under temperature stress / decomposition under light stress: solid, open glass dish; for decomposition under temperature and relative humidity stress: 70° C., approx. 90% relative humidity, 3 days; for decomposition under temperature stress: 105° C., 24 hours; for decomposition under light stress: Suntester xenon lamp, 22-24 hours
Text: Solid stress stability data of the free base and of the corresponding monohydrochloride

SMILES	solubility [1]	stability (general statement) [2]	decomposition under temperature and relative humidity stress [2]	decomposition under temperature stress [2]	decomposition under light stress [2]
Cn1c(CNc2ccc(C(=N)N)cc2)nc2cc([C@@](C)(NCC(=O)O)C(=O)N3CCCC3)ccc21 [monohydrochloride, (R)-2-(4-Amidinophenylaminomethyl)-1-methyl-5-[1-(carboxymethylamino)-1-(pyrrolidinocarbonyl)-ethyl]-benzimidazole-monohydrochloride]	dissolves very easily	high degree of stability	no decompo-	no decompo-	(<1%)
Cn1c(CNc2ccc(C(=N)N)cc2)nc2cc([C@@](C)(NCC(=O)O)C(=O)N3CCCC3)ccc21 [Free base, (R)-2-(4-Amidinophenylaminomethyl)-1-methyl-5-[1-(carboxymethylamino)-1-(pyrrolidinocarbonyl)-ethyl]-benzimidazole]			approx. 4%	approx. 1%	approx. 1%

Reference: US20040010026A1, “(R) 2-(4-amidinophenylaminomethyl)-1-methyl-5-[1-(carboxymethylamino)-1 (pyrrolidinocarbonyl)-ethyl]-benzimidazole, the monohydrochloride thereof, preparation thereof and the use as pharmaceutical composition” (Boehringer Ingelheim Pharma GmbH & Co. KG, priority 2002, published 2004)
